Experimental data: article PMC3600725 (CPT: Pharmacometrics & Systems Pharmacology, 2013)
Entries after “also recorded” stand apart in the source; their conditions may differ. Read-outs that look alike come from different tables or passages of the source.

How the values were obtained:
[1] = test system: human sandwich-cultured hepatocytes (SCH); test: Accumulation, BEI and in vitro clearance in human SCH; type: in vitro ADME
[2] = Estimated portal vein concentration of ritonavir; parameters: species or system human
[3] = cited from earlier work
[4] = cited from earlier work; remark: listed apart in the source
[5] = type: in vivo, human
[6] = target: MRP2 (Homo sapiens, UniProt Q92887); conditions: 50 µmol/l MK571; cited from earlier work
[7] = from human SCH data, well-stirred model, mean ± SD of n=3 donors
[8] = 2 × 300 mg oral ritonavir 14 and 2 h before, mean ± SD, n = 3
[9] = ^99mTc–mebrofenin alone (control), mean ± SD, n = 8

Sequence of MRP2 (Q92887 whole entry): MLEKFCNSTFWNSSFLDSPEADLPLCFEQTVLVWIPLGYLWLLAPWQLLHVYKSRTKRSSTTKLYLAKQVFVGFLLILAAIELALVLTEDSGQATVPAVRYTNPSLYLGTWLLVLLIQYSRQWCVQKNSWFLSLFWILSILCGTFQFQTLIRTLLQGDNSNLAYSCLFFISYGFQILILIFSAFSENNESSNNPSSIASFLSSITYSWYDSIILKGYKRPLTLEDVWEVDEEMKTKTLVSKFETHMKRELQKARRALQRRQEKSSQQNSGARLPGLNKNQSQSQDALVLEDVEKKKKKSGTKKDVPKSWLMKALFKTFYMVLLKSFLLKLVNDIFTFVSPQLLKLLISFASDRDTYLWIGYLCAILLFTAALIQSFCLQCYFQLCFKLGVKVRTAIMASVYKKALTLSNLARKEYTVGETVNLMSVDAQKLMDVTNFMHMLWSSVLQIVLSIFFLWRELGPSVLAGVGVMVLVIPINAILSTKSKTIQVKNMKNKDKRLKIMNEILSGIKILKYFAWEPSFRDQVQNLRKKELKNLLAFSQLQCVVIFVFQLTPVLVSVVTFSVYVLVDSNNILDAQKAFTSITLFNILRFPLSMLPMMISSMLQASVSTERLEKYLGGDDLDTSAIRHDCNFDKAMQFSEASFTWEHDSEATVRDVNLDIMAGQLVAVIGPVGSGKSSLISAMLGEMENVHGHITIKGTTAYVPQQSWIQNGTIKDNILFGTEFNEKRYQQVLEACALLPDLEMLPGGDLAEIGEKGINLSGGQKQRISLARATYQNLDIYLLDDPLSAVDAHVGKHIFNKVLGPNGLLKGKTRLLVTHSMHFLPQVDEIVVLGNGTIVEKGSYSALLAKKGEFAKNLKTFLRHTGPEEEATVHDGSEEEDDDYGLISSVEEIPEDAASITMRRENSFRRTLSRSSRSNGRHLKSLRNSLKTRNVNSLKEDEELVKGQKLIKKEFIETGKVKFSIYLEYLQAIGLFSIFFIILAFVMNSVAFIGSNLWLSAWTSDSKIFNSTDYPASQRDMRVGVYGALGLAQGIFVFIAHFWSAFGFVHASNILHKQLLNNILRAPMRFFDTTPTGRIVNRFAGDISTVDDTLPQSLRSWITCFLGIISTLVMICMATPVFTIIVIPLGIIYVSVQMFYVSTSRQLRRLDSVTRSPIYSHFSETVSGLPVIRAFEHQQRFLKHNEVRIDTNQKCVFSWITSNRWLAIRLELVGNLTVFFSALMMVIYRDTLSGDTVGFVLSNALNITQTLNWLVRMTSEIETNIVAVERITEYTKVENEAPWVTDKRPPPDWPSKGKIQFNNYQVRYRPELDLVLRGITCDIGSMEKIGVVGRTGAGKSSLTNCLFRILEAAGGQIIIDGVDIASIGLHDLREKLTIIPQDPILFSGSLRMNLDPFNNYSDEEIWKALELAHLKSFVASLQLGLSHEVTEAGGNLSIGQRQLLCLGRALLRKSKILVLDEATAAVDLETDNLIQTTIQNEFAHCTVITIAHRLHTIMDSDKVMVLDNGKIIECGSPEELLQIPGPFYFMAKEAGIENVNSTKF

CC(C)c1nc(CN(C)C(=O)N[C@H](C(=O)N[C@@H](Cc2ccccc2)C[C@H](O)[C@H](Cc2ccccc2)NC(=O)OCc2cncs2)C(C)C)cs1 [Ritonavir]
Total cellular accumulation of ritonavir (Ccell,total) ([1]; human SCH): up to 100 µmol/l
Maximum estimated portal vein concentration [2]: up to 45 µmol/l

Cc1cc(C)c(NC(=O)CN(CC(=O)[O-])CC(=O)[O-])c(C)c1Br.Cc1cc(C)c(NC(=O)CN(CC(=O)[O-])CC(=O)[O-])c(C)c1Br.[99Tc+4] [^99mTc–mebrofenin, ^99mTechnetium–mebrofenin]
Hepatic elimination half-life, previous reports [3]: ~ 15 min
Time of maximum liver concentration, reported value [3]: 11 min
Hepatic extraction, previous reports [4]: ~ 100%
CLbiliary, Predicted In Vivo Clearance [1, 7]: 4.4 ± 1.5 mL/min/kg
CLuptake, Predicted In Vivo Clearance [1, 7]: 10.6 ± 3.1 mL/min/kg
In vitro intrinsic CLuptake lower than semi-PBPK CLuptake,h ([1]; human SCH vs Table 2 estimate): ~ 50 fold
CLuptake, In Vitro Intrinsic Clearance ([1]; human SCH, mean ± SD of n=3 donors): ~ 24 mL/min/kg
AUC0–∞ (blood) [5, 8]: 4,464 ± 1,861 nCi·min/ml
Biliary recovery [5, 8]: 72 ± 2 % Dose
Change in AUCblood,0-∞ (systemic exposure) ([5]; 2 × 300 mg ritonavir as compared with control): significantly greater, by approximately twofold; also recorded: twofold increase
Biliary recovery ([5]; 2 h after single 200 mg oral ritonavir, mean ± SD, n = 7): 59 ± 11 % Dose
AUC0–∞ (blood) [5, 9]: 1,970 ± 311 nCi·min/ml
Biliary recovery [5, 9]: 75 ± 12 % Dose
CLbiliary [5, 9]: 12.5 ± 2.5 mL/min/kg
Urinary recovery ([5]; all groups, unaffected by ritonavir treatment): ~ 1 % of the administered dose
Hepatic extraction ratio (CLtotal/Qh) ([5]; control subjects, mean ± SD): 0.80 ± 0.16

CN(C)C(=O)CCSC(SCCC(=O)O)c1cccc(/C=C/c2ccc3ccc(Cl)cc3n2)c1 (stereo not shown) [MK571]
Reduction of ATP-dependent transport of ^99mTc–mebrofenin (MRP2 vesicles) [6]: 88 ± 2%
